Measured values from US11958880B2, “Means and methods for site-specific functionalization of polypeptides” (LUDWIG-MAXIMILIANS-UNIVERSITÄT MÜNCHEN, priority 2014, dated 2024).

Tests used:
Format in all cases: biochemical
[1] = target: T1, tubulin tyrosine ligase (TTL) (Canis lupus familiaris, UniProt A0A8I3N5B1); assay: TTL reaction on GBP4 followed by tryptic digest and HPLC-MS/MS; conditions: 1 mM tyrosine derivative, 1 μM TTL, 5 μM nanobody, 37° C., 24 h
T1 construct: His-Tag (N); SUMO3 (Sumo) (N); made in house; host or cells: E. coli BL21(DE3)
T1 sequence (A0A8I3N5B1 1-377): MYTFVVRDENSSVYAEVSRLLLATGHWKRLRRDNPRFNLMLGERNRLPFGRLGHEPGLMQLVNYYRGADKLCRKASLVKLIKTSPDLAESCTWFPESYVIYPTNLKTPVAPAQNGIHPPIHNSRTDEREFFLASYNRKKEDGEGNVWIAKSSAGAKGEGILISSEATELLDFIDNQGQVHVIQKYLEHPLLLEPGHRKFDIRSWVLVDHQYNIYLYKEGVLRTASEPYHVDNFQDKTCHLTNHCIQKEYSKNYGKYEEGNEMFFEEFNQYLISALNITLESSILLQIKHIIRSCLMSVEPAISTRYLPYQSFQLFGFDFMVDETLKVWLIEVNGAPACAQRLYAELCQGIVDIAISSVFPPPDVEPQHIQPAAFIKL
Description: Nanobodies were tyrosinated as described in Example 8. Proteins were separated by SDS-PAGE. Protein bands of interest were excised, soaked with 100 μL 50 mM (NH4)2CO3/ACN 1:1 and incubated at 30° C. for 10 min. The supernatant was removed and the gel pieces were incubated in 50 mM (NH4)2CO3 at 30° C. for further 10 min. The two incubation steps were repeated until the pieces were colorless. Hereafter, the gel pieces were dehydrated by the addition of 25 μL ACN, the supernatant removed and the gels were dried under reduced pressure. In-gel digest was performed in a total volume of 20 μL 50 mM (NH4)2CO3 at 37° C. for 12 h using 0.05 μg Trypsin. 20 μL ACN+0.5% TFA were added, the mixture was incubated in an ultrasonic bath, the supernatant transferred to LC glass vials, the solvent was removed under reduced pressure and the residual peptides resuspended in 6 μL 95% H2O+0.1% TFA, 5% ACN+0.1% TFA solution. Peptides were separated by HPLC and analysed by MSMS experiments.
Tyrosination reactions were performed in a 50 μL solution consisting of 20 mM MES/K pH 7.0, 100 mM KCl, 10 mM MgCl2, 2.5 mM ATP, 1 mM tyrosine derivative, 1 μM TTL, 5 μM nanobody and 5 mM reduced glutathione in case of compound 3 and 5 mM DTT in case of compound 1, 2, 9 and tyrosine (6), respectively. The mixture was incubated at 37° C. for 24 h. Proteins were separated by SDS-PAGE. Protein bands of interest were excised, soaked with 100 μL 50 mM (NH4)2CO3/ACN 1:1 and incubated at 30° C. for 10 min. The supernatant was removed and the gel pieces were incubated in 50 mM (NH4)2CO3 at 30° C. for further 10 min. The two incubation steps were repeated until the pieces were colourless. Hereafter, the gel pieces were dehydrated by the addition of 25 μL ACN, the supernatant removed and the gels were dried under reduced pressure. In-gel digest was performed in a total volume of 20 μL 50 mM (NH4)2CO3 at 37° C. for 12 h using 0.05 μg trypsin (Thermo Fisher Scientific, USA). 20 μL ACN+0.5% TFA was added, the mixture incubated in an ultrasonic bath, the supernatant transferred to LC glass vials, the solvent removed under reduced pressure and the residual peptides resuspended in 6 μL 95% H2O+0.1% TFA, 5% ACN+0.1% TFA solution. Peptides were separated by HPLC and analyzed by MSMS experiments.

[2] = target: T1, tubulin tyrosine ligase (TTL); assay: TTL tyrosination of carboxyfluorescein-labeled Tub-tag peptide (CF-Tub-tag), isocratic HPLC-fluorescence; conditions: TTL:peptide 1:200, after 120 min of incubation at 37° C.
Description: Tyrosination reactions were performed in a 250 μL solution consisting of 20 mM MES/K pH 7.0, 100 mM KCl, 10 mM MgCl2, 2.5 mM ATP, 1 mM tyrosine derivative, 0.2 mM peptide, 1 μM TTL and 5 mM DTT in case of compound 1, 2, 4 and 5 or 5 mM reduced glutathione in case of compound 3, respectively. The mixture was incubated at 37° C. and several aliquots (25 μL) were taken within 24 h, mixed with equal volumes of H2O+0.1% TFA and subjected either to isocratic analytical HPLC equipped with a fluorescence detector (Method A) or analytical UPLC-MS analysis. Quantities of substrate and product peptides were estimated from the corresponding peak-area in the fluorescence or UV detection spectrum (Ex/Em: 495/517).
Tyrosination reactions were performed in a 250 μL solution consisting of 20 mM MES/K pH 7.0, 100 mM KCl, 10 mM MgCl2, 2.5 mM ATP, 1 mM tyrosine derivative, 0.2 mM CF-Tub-tag 13, 1 μM TTL and 5 mM DTT in case of compound 2 or 5 mM reduced glutathione in case of compound 1, respectively. The mixture was incubated at 37° C. and several aliquots (25 μL) were taken, mixed with equal volumes of H2O+0.1% TFA and subjected to isocratic analytical HPLC equipped with a fluorescence detector (Method: A=H2O+0.1% TFA, B=MeCN+0.1% TFA; 35% B, 0-15 min, 10-100% B 15-17 min, 100% B 17-22 min, 100-35% B 22-25 min and 35% B 25-30 min.). […]

[3] = target: T1, tubulin tyrosine ligase (TTL); assay: TTL-mediated incorporation of tyrosine derivative to the C-terminus of GBP4 followed by SPAAC to DBCO-biotin (SDS-PAGE/western blot); conditions: for GBP4 converted (C-terminally modified GBP4): one hour; for GBP4 conversion: three hours
Description: Tyrosination reactions were performed in a 150 μL solution consisting of 20 mM MES/K pH 7.0, 100 mM KCl, 10 mM MgCl2, 2.5 mM ATP, 1 mM tyrosine derivative, 0.1-1 μM TTL, 5 μM nanobody and 5 mM reduced glutathione in case of compounds containing azides or 5 mM DTT for all other derivatives, respectively. The mixture was incubated at 37° C. for 1-3 h.
Tyrosination reactions were performed as described in Example 16 using compound 3, 5 mM reduced glutathione and a ratio of 10:1 GBP4/TTL for 3 h. The reaction mixtures were rebuffered to Dulbecco's PBS pH 7.4 and incubated with 30 eq. of Sulfo-Cy5-DBCO (Jena Bioscience GmbH, Germany) or DBCO-PEG4-biotin (Jena Bioscience GmbH, Germany) at 30° C. for 4 h. Proteins were separated by SDS-PAGE. Biotinylated nanobodies were wet blotted onto a nitrocellulose membrane using a Bio-Rad Mini-Protean Tetra System (250 mA, one hour). A streptavidin peroxidase conjugate (Merck Millipore, Germany) was used for detection. Fluorescently labeled nanobodies were visualized by a Fuji FLA-5000 laser imager (634 nm excitation, LPG-filter) (Fujifilm, Japan).

Compound | C-terminal addition to GBP4 shown by HPLC-MS/MS [1] | conjugate yield [2] [%] | GBP4 converted (C-terminally modified GBP4) ([3]; ratio 1:5 TTL/GBP4, 37° C.) [%] | GBP4 conversion ([3]; ratio 1:5 TTL/GBP4, 37° C.) [%] | GBP4 converted (C-terminally modified GBP4) ([3]; ratio 1:10 TTL/GBP4, 37° C.) [%] | GBP4 conversion ([3]; ratio 1:10 TTL/GBP4, 37° C.) [%]
N[C@@H](Cc1ccc(O)c(C=O)c1)C(=O)O [compound 1, 3-formyl-L-tyrosine] | successful C-terminal addition | 63 |  |  |  | 
N[C@@H](Cc1ccc(O)c([N+](=O)[O-])c1)C(=O)O [compound 2, 3-nitro-L-tyrosine] | successful C-terminal addition |  |  |  |  | 
[N-]=[N+]=Nc1cc(C[C@H](N)C(=O)O)ccc1O [compound 3, 3-azido-L-tyrosine] | successful C-terminal addition | 80 | 82 | 99 | 71 | 88
N[C@@H](Cc1ccc(O)cc1)C(=O)O [compound 6, L-tyrosine, reference compound] | successful C-terminal addition |  |  |  |  | 
Nc1cc(C[C@H](N)C(=O)O)ccc1O [compound 9, 3-amino-L-tyrosine] | successful C-terminal addition |  |  |  |  | 
